# Where a name gives a salt, the structure may show the parent alone. Read-outs that look alike come from different tables or passages of the source.
# How the values were obtained:
# [1] = system: intrabronchial desquamation and reactive hyperplasia of the mucosa; assay: Trophic-protective activity, nebulized CCl4; type: in vivo, rats; conditions: 0.25 g/kg/die orally for ten days, nebulized CCl4, 5 applications of 2 minutes/die
# Experimental: This was determined in rats by the administration of 0.25 g/kg/die, orally, of the product for a period of ten days while, contemporaneously, treating with nebulized CCl4 (5 applications of 2 minutes/die).
# DIFCO gastric mucin = assay: Mucolytic activity on gastric mucin (in vitro, Ostwald viscosimeter); type: biochemical; conditions: for Residual Viscosity in %: 5 minutes at 25°C, average of six readings, % of initial viscosity
# Experimental: The mucolytic activity was measured using DIFCO gastric mucin (10 g dissolved in 100 ml of phyaiological solution).
# (§1) The mucolytic compounds under test were incubated for 5 minutes at 25°C under constant agitation, mixing 1 ml of aqueous solution of product, having increasing molar quantities of the product being considered, with 10 ml of mucin. The viscosity was measured both before and after incubation, using an Ostwald viscosimeter with 1.5 mm capillaries. […] Each value represents the average of six readings.
# Acute toxicity = type: in vivo; conditions: mouse, in vivo, mice, read-out: DL50 (the source's name)
# Text: (§2) The acute toxicity determined in mice is shown by the values in Table 5 below: […]
# [2] = Mucolytic activity on nonpurulent excreta (in vitro, viscosity); parameters: species or system chronic bronchitis patients; conditions: AC and MP in tamponed solution
# Experimental: as §1
# Mucolytic activity on nonpurulent excreta The mucolytic activity was measured using a pool of nonpurulent excreta obtained from chronic bronchitis patients. The excreta was diluted 1:1 with a physiological solution and homogenized for three minutes - using a glass homogenizer - and then filtered through gauze and used immediately. The method used here is the same as described in the previous paragraph. In this case, however, the residual viscosity was determined after 5 minutes at 25°C (a) and after 40 minutes at 37°C (b).
# aerosol histaminic shock = assay: Antibronchospasmic activity, aerosol histaminic shock; type: in vivo; conditions: for time for the onset of the convulsions: 0.1 g/kg i.p., histamine aerosol two hours after pretreatment
# Text: […] The time was taken for the onset of the convulsions after having started administering the aerosol.
# [3] = system: bronchial hypersecretion induced in rats using S02; assay: In vivo mucolytic activity: bronchial hypersecretion induced by SO2; conditions: for number of rats which developed bronchial obstruction, expressed as a percentage of the animals not protected: oral 0.25 g/kg/die for two weeks, 300 ppm SO2 two hours per day, total 90 hours
# Experimental: This was determined by means of bronchial hypersecretion induced in rats using […]. The rats were treated by oral administration of 0.25 g/kg/die of mucolytic product for a period of two weeks, followed by inhalation of 300 ppm of SO2 for two hours per day for a total of 90 hours.
# carragenin = assay: Antiphlogistic activity, carragenin paw test; type: in vivo, rats; conditions: for ED50: Rattus norvegicus, sc, 3 h
# Experimental: This was determined on rats by means of the administration of the product,using an esophagus probe, one hour before making a subcutaneous injection of 0.05 ml of 1% carragenin solution in the right hind paw. After three hours, the volume of the treated paw was compared to the left hind paw, using a plethysmograph.
# mice = assay: Acute toxicity; type: in vivo
# Text: as §2
# rats and dogs = assay: Subacute and chronic toxicity, gastric probe; type: in vivo; conditions: subacute 12 weeks in rats; chronic 6 months in rats and dogs, 0.1 - 0.5 g/kg/die; statement also covers fetal toxicity tests
# Experimental: The subacute toxicity of the new product being practically the same for either case of oral or endovenous administration, the administration was only done by.means of a gastric probe.
# (§3) The subacute toxicity tests were carried out for 12 weeks on the rats, the chronic toxicity on rats and dogs for 6 months (0.1 - 0.5 g/kg/die) and the fetal toxicity tests were carried out on rats (0.1 - 0.5 g/kg/die between the 6th and 16th days gravidity) and on rabbits (0.1 - 0.3 g/kg/die between the 6th and 18th days of gravidity).
# rats, rabbits = assay: Fetal toxicity; type: in vivo; conditions: rats 0.1 - 0.5 g/kg/die, 6th to 16th day of gravidity; rabbits 0.1 - 0.3 g/kg/die, 6th to 18th day
# Experimental: as §3
# rats = assay: Tolerability at the lung level (surfactant, type II pneumocytes) in rats of the chronic toxicity test; type: in vivo; conditions: at termination of chronic treatment
# Text: In order to evaluate the tolerability at the lung level, for the same rats undergoing the chronic toxicity test, a determination of the influence made at the surfactant level was done at the termination of the treatment. A phospholipids analysis was made, obtaining qualitative data by means of TLC chromographic analysis and quantitative data by phosphorous determination. Gas chromographic analysis was made of the fatty acid content in liposomes separated.by centrifuging from the liquid in which the excised lungs had been washed.
# [4] = Pharmacokinetics: urinary elimination, titrimetric method; type: in vivo, rats; conditions: for dose excreted at 5 h: rat, urine, 800 mg/kg
# Experimental: The pharmcokinetic tests were carried out on rats after having administered 0.8 g/kg of the new product, orally, and using an esophagus probe.
# The urinary elimination tests were carried out using the ti- trimetric method. Each sample was treated with an equal volume of 20% HCL, titrating the sulfhydrylic groups with M/100 potassium bromate until the disappearance of the yellow color and calculating the amount of contained new compound (I) by means of a calibrated curve obtained by the same method. The velocity of urinary excretion is maximum within the first two hours after administration. Maximum values obtained after 5 hours amount to about 20% of the amount administered. Administering the same dose (0.8 g/kg) to a rat by means of a rectal suppository of very small dimensions, the cumulative amount in per cent eliminated in the urine within the first five hours is about 12 %.
# chronic bronchitis cases = assay: Preliminary clinical tests in chronic bronchitis cases; type: in vivo; conditions: for diminuition of excreta viscosity: 4th-5th day of treatment, cone and plate rotary viscosimeter
# Experimental: In the clinical field, preliminary tests were performed with the new compound by giving daily doses of 0.5 g,parenterally, 0.8 g, by aerosol, and 1 g,either orally or rectally, to chronic bronchitis cases. There was a progressive diminuition of excreta viscosity at the 4th-5th day of treatment, 70% in the case of purulent expectoration and 50% in the case of muco- purulent expectoration. The values were measured by means of a cone and plate, rotary viscosimeter. There was an average increase of 20% in vital capacity, 15% in VEMS and a reduction of residual volume of about 20%.
# This test proves once more that the new product is well tolerated in comparison with the other compounds having free thiolic action.
# [5] = Molar Conc. 0.015, (a) after 5 minutes at 25°C
# [6] = Molar Conc. 0.015, (b) after 40 minutes at 37°C
# [7] = Molar Conc. 0.03, (a) after 5 minutes at 25°C
# [8] = Molar Conc. 0.03, (b) after 40 minutes at 37°C
# [9] = Molar Conc. 0.06, (a) after 5 minutes at 25°C
# [10] = Molar Conc. 0.06, (b) after 40 minutes at 37°C
# [11] = esophagus probe one hour before 0.05 ml 1% carragenin s.c. in right hind paw, paw volume after three hours, read-out: DE50 (the source's name)
# [12] = daily 0.5 g parenterally, 0.8 g aerosol or 1 g orally or rectally
Compound,prevention of intrabronchial desquamation and reactive hyperplasia of the mucosa [1],"Residual Viscosity in % (DIFCO gastric mucin; Molar Conc. 0.015, 15000 µM)","Residual Viscosity in % (DIFCO gastric mucin; Molar Conc. 0.03, 30000 µM)","Residual Viscosity in % (DIFCO gastric mucin; Molar Conc. 0.06, 60000 µM)","LD50 (Acute toxicity; ip, i.p)","Residual Viscosity in % [2, 5]","Residual Viscosity in % [2, 6]","Residual Viscosity in % [2, 7]","Residual Viscosity in % [2, 8]","Residual Viscosity in % [2, 9]","Residual Viscosity in % [2, 10]",time for the onset of the convulsions (aerosol histaminic shock),"number of rats which developed bronchial obstruction, expressed as a percentage of the animals not protected [3]",ED50 (carragenin; [11]),"LD50 (Acute toxicity; iv, e.v.)","LD50 (Acute toxicity; po, os)",other results
"CC(=O)N[C@@H](CS)C(=O)O [AC, N-acetylcysteine]",≤ 50%,91%,86%,66%,400 mg/kg,87%,82%,68%,62%,40%,33%,210 s,16%,830 mg/kg,–,–,–
"CC(=O)Oc1ccccc1C(=O)O [ASA, acetylsalicylic acid]",–,–,–,–,–,–,–,–,–,–,–,–,–,–,–,–,ED50 (carragenin; read-out: DE50): 100 mg/kg
"NC(CSCC(=O)O)C(=O)O (stereo not drawn) [CM, S-carboxymetylcystine]",≤ 50%,–,–,–,–,–,–,–,–,–,–,–,29%,–,–,–,"values lower than those obtained with the MP compound (DIFCO gastric mucin; tests of Tables 1 and 2 (mucin and excreta) repeated, relative to MP): 30%; DE50 (carragenin; esophagus probe one hour before 0.05 ml 1% carragenin s.c. in right hind paw, paw volume after three hours): not measurable"
"O=C(O)CNC(=O)CCS [MP, beta-mercaptopropionylamidoacetic acid]",≤ 50%,88%,84%,65%,–,82%,78%,63%,56%,40%,31%,210 s,16%,–,–,–,"DL50 (mice; e.v.): 3.10 g/kg; DL50 (mice; i.p): 1.54 g/kg; DL50 (mice; os): 3.20 g/kg; DE50 (carragenin; esophagus probe one hour before 0.05 ml 1% carragenin s.c. in right hind paw, paw volume after three hours, 180 min): 785 mg/kg"
"CC(S)C(=O)NCC(=O)O (stereo not drawn) [MP/A, alpha-mercaptopropionylamidoacetic acid]",≤ 50%,–,–,–,1280 mg/kg,–,–,–,–,–,–,200 s,14.5%,780 mg/kg,2240 mg/kg,2190 mg/kg,values obtained compared with the beta isomer (MP) (DIFCO gastric mucin; tests of Tables 1 and 2 (mucin and excreta) repeated): substantially the same as those obtained with the beta isomer (MP)
"O=C(O)CNC(=O)CCS [MPCa, calcium salt of beta-mercapto propionylamidoacetic acid]",–,83%,75%,59%,1710 mg/kg,76%,71%,44%,36%,32%,24%,250 s,12.5%,650 mg/kg,3470 mg/kg,3510 mg/kg,"prevention of intrabronchial desquamation and reactive hyperplasia of the mucosa ([1]; listed as The new compound): 65%; tolerability (rats and dogs): Very good tolerability; effects on the mothers and on the characteristics of the offspring (rats, rabbits): no negative effects; surfactant level (phospholipids, fatty acid content) compared with the control group (rats): No significant differences; dose excreted at 5 h ([4]; po, rats, 0.8 g/kg orally, after 5 hours, read-out: urinary elimination, % of the amount administered): ~20%; time of maximum velocity of urinary excretion ([4]; rats, 0.8 g/kg orally): two; dose excreted at 5 h ([4]; 0.8 g/kg rectal suppository, within the first five hours, read-out: cumulative amount in per cent eliminated in the urine): ~12%; increase of time for the onset of the convulsions (aerosol histaminic shock; 48 hours after administration): 30%; persistence of the -SE groups in the cells of the bronchial mucosa ([3]; D.D.D. coloration): almost complete persistence; reduction of calyciform hyperplasia ([3]; bronchial mucosa, P.A.S. coloration, less than control group): 40%; number of muciparous cells ([3]; bronchial mucosa, histological and histochemical tests): significant reduction; bronchospasmic manifestations (chronic bronchitis cases; aerosol treatment, plethysmograph in broncholabile patients): no bronchospasmic manifestations were observed; average increase in VEMS (chronic bronchitis cases; [12]): 15%; average increase in vital capacity (chronic bronchitis cases; [12]): 20%; reduction of residual volume (chronic bronchitis cases; [12]): about 20%; diminuition of excreta viscosity (chronic bronchitis cases; muco-purulent expectoration): 50%; diminuition of excreta viscosity (chronic bronchitis cases; purulent expectoration): 70%"

# Source: EP0087397A2, “Propionylglycine derivative, process for its preparation and therapeutic compositions which contain it as the active principle” (Farmatis S.r.l., priority 1982, dated 1983)
